# Experiments:
# [1] = target: T1, Protein kinase C epsilon type (Homo sapiens) (UniProt Q02156); experiment: Inhibition of human PKCepsilon at 500 nM by HotSpot assay relative to control
# T1 sequence (whole entry): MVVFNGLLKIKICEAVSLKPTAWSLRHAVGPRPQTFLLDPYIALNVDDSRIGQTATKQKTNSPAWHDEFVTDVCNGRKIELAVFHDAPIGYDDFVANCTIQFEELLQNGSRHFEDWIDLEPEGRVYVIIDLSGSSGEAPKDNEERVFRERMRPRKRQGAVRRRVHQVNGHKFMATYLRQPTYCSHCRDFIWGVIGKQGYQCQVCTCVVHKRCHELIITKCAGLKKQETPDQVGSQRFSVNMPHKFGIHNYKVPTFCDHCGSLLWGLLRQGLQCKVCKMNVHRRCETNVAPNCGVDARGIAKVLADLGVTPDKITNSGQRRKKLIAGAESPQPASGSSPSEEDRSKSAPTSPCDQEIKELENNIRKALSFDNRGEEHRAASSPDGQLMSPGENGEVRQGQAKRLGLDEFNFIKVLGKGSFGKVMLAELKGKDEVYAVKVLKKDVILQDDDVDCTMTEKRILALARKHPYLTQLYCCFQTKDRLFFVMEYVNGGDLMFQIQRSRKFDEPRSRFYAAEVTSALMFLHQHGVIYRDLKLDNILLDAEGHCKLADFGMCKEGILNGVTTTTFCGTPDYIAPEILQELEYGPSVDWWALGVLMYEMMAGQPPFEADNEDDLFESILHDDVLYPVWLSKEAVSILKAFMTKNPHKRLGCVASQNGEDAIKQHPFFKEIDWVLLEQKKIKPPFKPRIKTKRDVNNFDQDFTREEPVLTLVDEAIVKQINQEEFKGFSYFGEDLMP
# [2] = target: Cyclin-dependent kinase 5/CDK5 activator 1 (Homo sapiens) (UniProt Q00535+Q15078); experiment: Inhibition of human CDK5/p35 at 500 nM by HotSpot assay relative to control; format: protein-complex assay
# Cyclin-dependent kinase 5/CDK5 activator 1 (Homo sapiens), sequence (Q00535 whole entry): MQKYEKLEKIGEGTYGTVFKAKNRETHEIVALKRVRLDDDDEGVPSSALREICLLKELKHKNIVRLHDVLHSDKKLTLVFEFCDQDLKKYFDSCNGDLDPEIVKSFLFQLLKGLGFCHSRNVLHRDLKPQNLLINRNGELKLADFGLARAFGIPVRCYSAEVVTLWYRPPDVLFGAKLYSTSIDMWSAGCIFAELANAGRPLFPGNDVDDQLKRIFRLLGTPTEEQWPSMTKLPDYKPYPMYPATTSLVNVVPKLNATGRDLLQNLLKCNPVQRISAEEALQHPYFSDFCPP
# Cyclin-dependent kinase 5/CDK5 activator 1 (Homo sapiens), sequence (Q15078 99-307 partner limits assumed): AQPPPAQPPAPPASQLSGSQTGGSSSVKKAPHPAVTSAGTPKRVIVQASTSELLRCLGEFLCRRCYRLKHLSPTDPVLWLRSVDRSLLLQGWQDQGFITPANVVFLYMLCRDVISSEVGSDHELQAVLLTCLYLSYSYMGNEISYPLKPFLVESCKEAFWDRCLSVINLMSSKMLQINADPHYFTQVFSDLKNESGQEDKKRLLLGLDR
# [3] = target: Serine/threonine-protein kinase PLK1 (Homo sapiens) (UniProt P53350); experiment: Inhibition of human PLK1 at 500 nM by HotSpot assay relative to control
# Serine/threonine-protein kinase PLK1 (Homo sapiens), sequence (P53350 whole entry): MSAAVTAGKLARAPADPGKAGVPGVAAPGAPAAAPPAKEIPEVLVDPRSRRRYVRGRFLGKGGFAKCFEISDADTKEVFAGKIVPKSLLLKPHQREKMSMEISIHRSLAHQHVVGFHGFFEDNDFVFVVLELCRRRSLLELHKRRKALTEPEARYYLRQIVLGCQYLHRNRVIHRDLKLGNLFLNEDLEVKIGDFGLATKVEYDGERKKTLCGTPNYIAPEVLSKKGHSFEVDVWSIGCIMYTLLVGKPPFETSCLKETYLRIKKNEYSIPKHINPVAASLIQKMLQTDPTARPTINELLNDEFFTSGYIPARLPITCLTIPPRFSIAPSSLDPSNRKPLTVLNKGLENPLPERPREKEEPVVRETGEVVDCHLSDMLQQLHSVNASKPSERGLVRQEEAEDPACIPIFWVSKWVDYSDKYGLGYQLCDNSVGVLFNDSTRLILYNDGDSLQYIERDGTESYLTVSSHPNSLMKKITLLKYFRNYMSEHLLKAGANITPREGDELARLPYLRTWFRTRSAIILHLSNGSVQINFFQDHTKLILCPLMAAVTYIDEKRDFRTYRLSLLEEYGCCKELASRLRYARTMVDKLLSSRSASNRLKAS
# [4] = target: T2, Serine/threonine-protein kinase STK11 (Homo sapiens) (UniProt Q15831); experiment: Inhibition of human LKB1 at 500 nM by HotSpot assay relative to control
# T2 sequence (whole entry): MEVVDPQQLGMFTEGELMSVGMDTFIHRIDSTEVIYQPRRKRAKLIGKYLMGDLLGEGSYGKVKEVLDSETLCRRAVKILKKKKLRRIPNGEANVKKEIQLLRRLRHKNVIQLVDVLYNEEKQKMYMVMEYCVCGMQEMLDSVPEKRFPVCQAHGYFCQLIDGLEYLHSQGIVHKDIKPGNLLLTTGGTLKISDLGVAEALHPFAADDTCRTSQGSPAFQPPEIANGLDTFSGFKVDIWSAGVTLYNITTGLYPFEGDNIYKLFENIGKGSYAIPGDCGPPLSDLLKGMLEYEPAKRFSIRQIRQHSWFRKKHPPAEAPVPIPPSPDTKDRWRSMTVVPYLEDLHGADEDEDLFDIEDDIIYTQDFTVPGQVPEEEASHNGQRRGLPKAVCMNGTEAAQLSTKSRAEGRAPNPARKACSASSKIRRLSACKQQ
# [5] = target: T3, Serine/threonine-protein kinase Sgk3 (Homo sapiens) (UniProt Q96BR1); experiment: Inhibition of human SGKL at 500 nM by HotSpot assay relative to control
# T3 sequence (whole entry): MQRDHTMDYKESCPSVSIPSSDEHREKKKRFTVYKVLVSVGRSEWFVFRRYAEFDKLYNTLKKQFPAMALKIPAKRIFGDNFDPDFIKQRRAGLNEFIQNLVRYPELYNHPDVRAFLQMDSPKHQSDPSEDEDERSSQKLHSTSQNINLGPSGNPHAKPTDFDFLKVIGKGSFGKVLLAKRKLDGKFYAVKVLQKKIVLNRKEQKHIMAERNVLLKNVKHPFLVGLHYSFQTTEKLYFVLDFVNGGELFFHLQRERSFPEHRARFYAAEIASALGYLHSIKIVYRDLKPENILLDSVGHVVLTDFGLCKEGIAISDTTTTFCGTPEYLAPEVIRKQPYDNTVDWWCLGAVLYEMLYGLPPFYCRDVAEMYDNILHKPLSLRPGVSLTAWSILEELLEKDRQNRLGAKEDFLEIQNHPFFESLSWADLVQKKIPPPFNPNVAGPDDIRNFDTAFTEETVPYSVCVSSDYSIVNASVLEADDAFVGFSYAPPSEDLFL
# [6] = target: MAP kinase-interacting serine/threonine-protein kinase 2 (Homo sapiens) (UniProt Q9HBH9); experiment: Inhibition of human MNK2 at 500 nM by HotSpot assay relative to control
# MAP kinase-interacting serine/threonine-protein kinase 2 (Homo sapiens), sequence (Q9HBH9 whole entry, looked up): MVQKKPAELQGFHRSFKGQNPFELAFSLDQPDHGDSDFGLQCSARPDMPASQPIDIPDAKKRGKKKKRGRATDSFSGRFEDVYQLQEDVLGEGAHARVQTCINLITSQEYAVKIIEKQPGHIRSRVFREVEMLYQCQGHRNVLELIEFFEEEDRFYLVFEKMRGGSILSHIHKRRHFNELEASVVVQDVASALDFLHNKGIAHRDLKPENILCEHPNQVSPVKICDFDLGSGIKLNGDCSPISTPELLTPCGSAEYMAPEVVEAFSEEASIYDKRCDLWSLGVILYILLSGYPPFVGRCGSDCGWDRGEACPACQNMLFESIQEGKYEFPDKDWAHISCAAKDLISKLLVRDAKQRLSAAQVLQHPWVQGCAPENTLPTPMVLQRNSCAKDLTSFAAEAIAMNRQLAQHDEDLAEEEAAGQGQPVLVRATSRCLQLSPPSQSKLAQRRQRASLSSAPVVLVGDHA
# [7] = target: T4, Activin receptor type-1B (Homo sapiens) (UniProt P36896); experiment: Inhibition of human ALK4 at 500 nM by HotSpot assay relative to control
# T4 sequence (whole entry): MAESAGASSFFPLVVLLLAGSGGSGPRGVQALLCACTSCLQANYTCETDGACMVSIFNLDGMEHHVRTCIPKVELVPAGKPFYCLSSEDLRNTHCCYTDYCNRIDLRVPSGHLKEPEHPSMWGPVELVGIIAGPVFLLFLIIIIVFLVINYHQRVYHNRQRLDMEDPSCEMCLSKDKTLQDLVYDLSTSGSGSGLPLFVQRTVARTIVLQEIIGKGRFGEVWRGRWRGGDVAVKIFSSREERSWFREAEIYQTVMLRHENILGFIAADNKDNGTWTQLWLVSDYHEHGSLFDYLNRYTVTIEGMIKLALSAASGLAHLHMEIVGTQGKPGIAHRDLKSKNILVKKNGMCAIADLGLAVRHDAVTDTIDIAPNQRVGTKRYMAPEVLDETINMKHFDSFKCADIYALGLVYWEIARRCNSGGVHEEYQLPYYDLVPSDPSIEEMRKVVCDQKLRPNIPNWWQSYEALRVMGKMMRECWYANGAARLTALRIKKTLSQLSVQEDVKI
Structure (SMILES),inhibition [1],inhibition [2],inhibition [3],inhibition [4],inhibition [5],inhibition [6],inhibition [7]
Nc1n[nH]c2nnc(-c3c(-c4ccccc4)nn4ccccc34)cc12,27.3%,-4.88%,1.9%,8.15%,9.81%,1.7%,-6.71%
Oc1n[nH]c2nnc(-c3c(-c4ccccc4)nn4ccccc34)cc12,3.42%,-2.59%,2.92%,7.3%,0.31%,-6.03%,0.15%

# Reference: ChEMBL document CHEMBL5653615 (J Biol Chem, 2013)
